Tests used:
[1] = (Z)-Endoxifen recovery by solvent evaporation (XRPD); format: physicochemical
Procedure: For the single-solvent evaporations, 10 mg (Z)-endoxifen was dissolved in 1 ml of various solvents in which (Z)-endoxifen has >1000 mg/ml solubility (“very soluble”), 100-1000 mg/ml solubility (“freely soluble”), 33-100 mg/ml solubility (“soluble”), and 10-33 mg/ml solubility (“sparingly soluble”). The solutions were stirred for approximately 60 minutes, then left to evaporate. Following (Z)-endoxifen dissolution to a concentration of 10 mg/ml, all solvents generated clear solutions in which the (Z)-endoxifen completely dissolved. The solutions were evaporated at either room temperature (17-25° C.) or elevated temperature (40-60° C.). All evaporations were performed at 1 atmosphere pressure. The solids obtained from the evaporations were analyzed by XRPD.
For the multi-solvent evaporations, 40 mg (Z)-endoxifen was dissolved in either ethanol/water or THF/acetone mixtures. For the water/ethanol evaporations, 20 ml of 70/30 ethanol/water (v/v) mixtures (achieving concentrations of 2 mg/ml (Z)-endoxifen). The white suspensions were incubated for 3 days at 50° C., yielding clear solutions which were then left to evaporate at elevated temperatures. These analyses were repeated over 4 replicates. For the THF/acetone evaporations, 60 mg (Z)-endoxifen were dissolved in 1.5 ml of a multi-solvent system containing tetrahydrofuran (THF) and acetone in a 40/60 (v/v) mixture. The resultant clear solution was filtered and left to evaporate at room temperature.

[2] = Precipitation of (Z)-endoxifen by cooling, gradient precipitation (XRPD); format: physicochemical; settings: GRAD
Procedure: Z)-endoxifen was precipitated by cooling various single and multi- solvent systems. […] The crystallizations utilized cooling rates of 0.5° C./minute or 0.2° C./minute. The samples were then incubated 25° C. with stirring for approximately 15 hours. Some solutions generated precipitate, which was recovered by filtration with a nylon filter (0.22 μm) during centrifugation at 4000 rpm for 3 minutes.
The resulting precipitate was recovered by filtration with a nylon filter (0.22 μm) during centrifugation at 4000 rpm for 3 minutes.
All precipitates were collected for XRPD analysis.

[3] = 2-propanol 0.5 mL, 20 mg/mL, 75 to 25 °C, ramp −0.2
[4] = acetone 0.5 mL, 20 mg/mL, 25 to −20 °C, ramp not controlled, 3 d
[5] = acetonitrile 0.5 mL, 20 mg/mL, 75 to 25 °C, ramp −0.2
[6] = butyl acetate 0.5 mL, 100 mg/mL, 100 to 25 °C, ramp −0.2
[7] = ethanol 0.5 mL, 20 mg/mL, 75 to 25 °C, ramp −0.2

CC/C(=C(\c1ccc(O)cc1)c1ccc(OCCNC)cc1)c1ccccc1 [(Z)-endoxifen, (Z)-4-(1-(4-(2-(methylamino)ethoxy)phenyl)-2-phenylbut-1-enyl)phenol]
Output Main phase [phase] ([1]; EVHT: butyl acetate, 10 mg/mL, evaporation at 60° C.): Form I
Output Main phase [phase] ([1]; EVHT: dimethylformamide, 10 mg/mL, evaporation at 60° C.): amorphous
Output Main phase [phase] ([1]; EVHT: ethanol/water 70/30 v/v, 2 mg/mL, evaporation at 60° C. (4 replicates)): amorphous
Output Main phase [phase] ([1]; EVHT: methyl isobutyl ketone, 10 mg/mL, evaporation at 60° C.): amorphous
Output Main phase [phase] ([1]; EVHT: toluene, 10 mg/mL, evaporation at 60° C.): amorphous
Output Main phase [phase] ([1]; EVRT: 2-propanol, 10 mg/mL, evaporation at RT): Form IV
Output Main phase [phase] ([1]; EVRT: acetone, 10 mg/mL, evaporation at RT): Form I
Output Main phase [phase] ([1]; EVRT: acetonitrile, 10 mg/mL, evaporation at RT): Form I
Output Main phase [phase] ([1]; EVRT: ethyl acetate, 10 mg/mL, evaporation at RT): Form I
Output Main phase [phase] ([1]; EVRT: methanol, 10 mg/mL, evaporation at RT): Form I
Output Main phase [phase] ([1]; EVRT: tetrahydrofuran/acetone 40/60 v/v, 40 mg/mL, evaporation at RT): Form I
Output Crystallinity [high/low/SC/oriented] [2, 3]: low
Output Main phase [phase] [2, 3]: Form I
Output Main phase [phase] ([2]; 2-propanol 0.5 mL, 100 mg/mL, 75 to 25 °C, ramp −0.2): Form I
Output Crystallinity [high/low/SC/oriented] [2, 4]: low
Output Main phase [phase] [2, 4]: Form I
Output Crystallinity [high/low/SC/oriented] [2, 5]: low
Output Main phase [phase] [2, 5]: Form V
Output Crystallinity [high/low/SC/oriented] [2, 6]: low
Output Main phase [phase] [2, 6]: Form I
Output Crystallinity [high/low/SC/oriented] [2, 7]: low
Output Main phase [phase] [2, 7]: Form I
Output Main phase [phase] ([2]; ethanol 0.5 mL, 100 mg/mL, 75 to 25 °C, ramp −0.2): Form I
Output Main phase [phase] ([2]; ethyl acetate 0.5 mL, 100 mg/mL, 75 to 25 °C, ramp −0.2): Form I
Output Main phase [phase] ([2]; methyl isobutyl ketone 0.5 mL, 100 mg/mL, 25 to −20 °C, ramp not controlled, 1 d): Form X

Reference: patent publication US20250066286A1, “COMPOSITIONS OF (Z)-ENDOXIFEN AND METHODS OF ENRICHMENT THEREOF” (Atossa Therapeutics, Inc., priority 2022, published 2025)
